Type in all cases: cell-based
For one assay, the target named is T1, GABA transporter 3 (Mus musculus, UniProt P31649).
T1 sequence (P31649 whole entry): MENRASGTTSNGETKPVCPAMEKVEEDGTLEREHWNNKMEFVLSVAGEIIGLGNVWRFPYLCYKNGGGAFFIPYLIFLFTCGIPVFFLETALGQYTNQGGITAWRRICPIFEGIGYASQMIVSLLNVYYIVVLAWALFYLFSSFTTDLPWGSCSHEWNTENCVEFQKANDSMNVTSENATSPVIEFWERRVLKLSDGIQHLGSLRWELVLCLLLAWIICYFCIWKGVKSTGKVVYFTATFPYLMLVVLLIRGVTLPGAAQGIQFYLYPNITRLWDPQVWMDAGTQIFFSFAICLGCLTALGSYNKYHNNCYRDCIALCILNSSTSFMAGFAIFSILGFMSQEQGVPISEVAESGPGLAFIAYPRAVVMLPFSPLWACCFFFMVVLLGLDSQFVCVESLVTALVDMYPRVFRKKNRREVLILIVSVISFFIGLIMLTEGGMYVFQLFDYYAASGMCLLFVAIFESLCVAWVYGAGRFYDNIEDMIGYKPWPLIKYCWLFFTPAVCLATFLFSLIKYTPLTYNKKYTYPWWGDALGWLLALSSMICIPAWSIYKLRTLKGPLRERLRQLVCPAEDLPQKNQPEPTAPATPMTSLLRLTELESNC
Kind of assay: Inhibition of mouse GAT3 expressed in HEK293 cells assessed as decrease in [3H]GABA uptake preincubated for 25 mins followed by [3H]GABA addition measured after 4 mins by liquid scintillation counter method.

The next assay deals with T2, GABA transporter 4 (Mus musculus, UniProt P31650).
T2 sequence (P31650 whole entry): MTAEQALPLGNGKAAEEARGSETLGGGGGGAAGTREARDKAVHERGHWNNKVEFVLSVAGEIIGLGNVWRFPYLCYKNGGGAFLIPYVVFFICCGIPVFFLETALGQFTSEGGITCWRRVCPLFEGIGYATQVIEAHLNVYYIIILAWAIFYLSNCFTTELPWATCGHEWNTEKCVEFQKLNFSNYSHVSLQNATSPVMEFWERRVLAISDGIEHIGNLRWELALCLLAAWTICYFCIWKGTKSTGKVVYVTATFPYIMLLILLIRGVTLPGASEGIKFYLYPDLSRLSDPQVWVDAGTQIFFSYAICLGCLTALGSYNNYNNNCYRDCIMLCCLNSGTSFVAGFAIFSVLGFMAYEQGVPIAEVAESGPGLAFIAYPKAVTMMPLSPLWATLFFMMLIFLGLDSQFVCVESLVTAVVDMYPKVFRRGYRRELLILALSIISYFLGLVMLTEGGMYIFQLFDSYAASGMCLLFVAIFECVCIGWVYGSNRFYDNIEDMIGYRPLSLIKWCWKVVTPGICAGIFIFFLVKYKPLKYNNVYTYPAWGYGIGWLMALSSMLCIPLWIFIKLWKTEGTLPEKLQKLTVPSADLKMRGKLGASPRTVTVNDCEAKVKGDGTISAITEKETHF
Kind of assay: Inhibition of mouse GAT4 expressed in HEK293 cells assessed as decrease in [3H]GABA uptake preincubated for 25 mins followed by [3H]GABA addition measured after 4 mins by liquid scintillation counter method.

Assay [1] deals with T3, Sodium- and chloride-dependent betaine transporter (Homo sapiens, UniProt P48065).
T3 sequence (P48065 whole entry): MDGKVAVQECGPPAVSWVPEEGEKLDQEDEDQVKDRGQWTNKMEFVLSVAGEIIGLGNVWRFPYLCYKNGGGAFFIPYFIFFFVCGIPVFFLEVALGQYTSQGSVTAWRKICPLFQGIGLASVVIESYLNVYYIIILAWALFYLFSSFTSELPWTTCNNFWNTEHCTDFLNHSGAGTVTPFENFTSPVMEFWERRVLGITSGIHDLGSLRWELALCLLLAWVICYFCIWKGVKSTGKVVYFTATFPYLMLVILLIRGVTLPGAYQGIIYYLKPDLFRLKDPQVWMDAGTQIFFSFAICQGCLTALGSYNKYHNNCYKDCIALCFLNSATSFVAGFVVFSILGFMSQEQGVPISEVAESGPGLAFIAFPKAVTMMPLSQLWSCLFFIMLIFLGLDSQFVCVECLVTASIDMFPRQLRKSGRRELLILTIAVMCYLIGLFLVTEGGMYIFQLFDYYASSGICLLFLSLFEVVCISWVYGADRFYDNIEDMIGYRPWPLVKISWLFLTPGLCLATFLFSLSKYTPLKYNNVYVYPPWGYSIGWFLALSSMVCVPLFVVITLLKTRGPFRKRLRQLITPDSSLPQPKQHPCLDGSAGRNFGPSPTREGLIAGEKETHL
Kind of assay: Inhibition of human BGT-1 expressed in thymidine kinase deficient mouse LM cells assessed as decrease in [3H]GABA uptake after 10 mins by scintillation counter method.

Assay [2] addresses Sodium- and chloride-dependent GABA transporter 1 (Mus musculus) (UniProt P31648). Kind of assay: Inhibition of mouse GAT1 expressed in HEK293 cells assessed as decrease in [3H]GABA uptake at 100 uM preincubated for 25 mins followed by [3H]GABA addition measured after 4 mins by liquid scintillation counter method.
Assay [3] has as its target T4, GABA transporter 2 (Mus musculus) (UniProt P31651).
T4 sequence (whole entry): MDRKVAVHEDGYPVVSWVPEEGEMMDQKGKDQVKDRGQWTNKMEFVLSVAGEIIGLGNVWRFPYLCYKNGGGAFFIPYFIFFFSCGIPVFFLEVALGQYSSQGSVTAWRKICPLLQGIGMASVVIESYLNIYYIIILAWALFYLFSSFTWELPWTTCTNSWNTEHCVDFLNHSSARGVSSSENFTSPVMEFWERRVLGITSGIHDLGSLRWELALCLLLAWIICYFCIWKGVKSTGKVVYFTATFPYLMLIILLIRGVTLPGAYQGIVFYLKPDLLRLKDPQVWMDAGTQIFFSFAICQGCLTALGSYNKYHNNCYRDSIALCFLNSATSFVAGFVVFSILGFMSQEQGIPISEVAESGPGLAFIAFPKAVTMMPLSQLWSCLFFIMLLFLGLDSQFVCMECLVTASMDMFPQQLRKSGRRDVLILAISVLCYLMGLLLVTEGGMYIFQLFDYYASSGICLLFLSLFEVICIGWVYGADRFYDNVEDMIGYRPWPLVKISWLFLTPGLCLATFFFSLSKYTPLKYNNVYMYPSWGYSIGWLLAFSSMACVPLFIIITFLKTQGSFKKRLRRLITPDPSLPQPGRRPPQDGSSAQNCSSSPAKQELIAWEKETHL
Kind of assay: Inhibition of mouse GAT2 expressed in HEK293 cells assessed as decrease in [3H]GABA uptake at 100 uM preincubated for 25 mins followed by [3H]GABA addition measured after 10 mins by liquid scintillation counter method.

The structures appear in SMILES notation.

For the compound `COc1ccc(C2(OCCN3CCCC(C(=O)O)C3)c3ccccc3-c3ccccc32)cc1` (stereo not given), the IC50 – broadly, the point on the concentration scale where inhibition reaches its midpoint – on GABA transporter 3 was 93.3 µM; on GABA transporter 4, 30.2 µM; in assay [1], 27 µM. For the same compound, the inhibition (in general, the percentage by which the read-out fell short of the control) in assay [2] is 73.1%; in assay [3], 66.3%.

The values are drawn from ChEMBL document CHEMBL3877251, “Synthesis and biological evaluation of a series of N-alkylated imidazole alkanoic acids as mGAT3 selective GABA uptake inhibitors” (Eur J Med Chem, 2016).
